Laboratory results published in PubChem BioAssay (NCI).
Values joined by “and” are separate entries in the source; they are usually repeats but may differ in a detail not shown here. Equal entries are not always repeated.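 Method: 48-hour compound exposure of cells in 96-well plates, five concentrations, linear interpolation of endpoints. Abbreviation: GI50, concentration required for 50% inhibition of growth. TGI marks complete inhibition of growth.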

Assays:
Test in all cases: DTP human tumour cell line panel, 48 h
CAKI-1 renal = system: CAKI-1 renal
NCI-H23 lung = system: NCI-H23 lung
UACC-257 melanoma = system: UACC-257 melanoma
SW-620 colon = system: SW-620 colon
RXF 393 renal = system: RXF 393 renal
T-47D breast = system: T-47D breast
HCT-116 colon = system: HCT-116 colon
SK-OV-3 ovarian = system: SK-OV-3 ovarian
ACHN renal = system: ACHN renal
NCI/ADR-RES ovarian = system: NCI/ADR-RES ovarian

| SMILES | GI50 (CAKI-1 renal) | TGI (CAKI-1 renal) | GI50 (NCI-H23 lung) | TGI (NCI-H23 lung) | GI50 (UACC-257 melanoma) | TGI (UACC-257 melanoma) | GI50 (SW-620 colon) | TGI (SW-620 colon) | GI50 (RXF 393 renal) | TGI (RXF 393 renal) | GI50 (T-47D breast) | TGI (T-47D breast) | GI50 (HCT-116 colon) | TGI (HCT-116 colon) | GI50 (SK-OV-3 ovarian) | TGI (SK-OV-3 ovarian) | GI50 (ACHN renal) | TGI (ACHN renal) | GI50 (NCI/ADR-RES ovarian) | TGI (NCI/ADR-RES ovarian) |
| --- | --- | --- | --- | --- | --- | --- | --- | --- | --- | --- | --- | --- | --- | --- | --- | --- | --- | --- | --- | --- |
| N#CSc1c[nH]c2ccc(/C=C/C(=O)/C=C(O)/C=C/c3ccc4[nH]cc(SC#N)c4c3)cc12 | 1.58 µM | 4.1 µM | 2.95 µM | 13.6 µM | 2.79 µM | 12.5 µM | 0.668 µM | 2.35 µM | 0.538 µM | 2.93 µM | 1.97 µM | 8.82 µM | 0.296 µM | 1.19 µM | 20.3 µM | 80.2 µM | 0.568 µM | 3.3 µM | 3.22 µM | 52.7 µM |
| CC(C)(C)CNCCO |  | > 100 µM |  | > 100 µM |  | > 100 µM |  | > 100 µM |  | > 100 µM |  | > 100 µM |  | > 100 µM |  | > 100 µM |  | > 100 µM |  | > 100 µM |
| Clc1ccc2c(NC3CCC(NC4CCCCC4)CC3)ccnc2c1 (stereo unspecified) | 1.81 µM | 6.63 µM | 7.74 µM | 35.9 µM | 2.18 µM | 4.17 µM | 1.92 µM | 4.19 µM | 3.61 µM | 16.6 µM | 3.42 µM | 17.7 µM | 3.26 µM | 13.9 µM | 15.9 µM | 46.2 µM | 4.85 µM | 17.1 µM | 8.48 µM | 30.4 µM |
| Clc1cccc(-c2cc(-c3ccc4c(c3)OCCO4)[nH]n2)c1 | 1.61 µM | 36.3 µM | 8.66 µM | 57.4 µM | 25.4 µM | 55.3 µM | 1.09 µM | 44.9 µM | 7.34 µM | 46.1 µM | 3.64 µM | 53.8 µM | 5.96 µM | 40.3 µM | 5.42 µM | 46.7 µM | 9.69 µM | 41 µM | 1.11 µM | 33.8 µM |
| CCCCCOC(=O)c1c(C)[nH]c(/C=C2\N=C(c3ccc[nH]3)C=C2OC)c1C | 0.0335 µM | 0.335 µM | 0.057 µM | 1.47 µM | 0.0953 µM | 1.28 µM | 0.0308 µM | 1.28 µM | 0.0664 µM | 0.9 µM | 0.0369 µM | 1.37 µM | 0.0193 µM | 0.349 µM | 0.209 µM | 2.38 µM | 0.0396 µM | 1.21 µM | 0.0391 µM | 1.33 µM |
| COc1ccc(CC(C)NCC(O)c2ccc(O)c(NC=O)c2)cc1 (stereo unspecified) |  | > 100 µM |  | > 100 µM |  | > 100 µM |  | > 100 µM |  | > 100 µM |  | > 100 µM |  | > 100 µM |  | > 100 µM |  | > 100 µM |  | > 100 µM |
| O=c1oc2ccccc2cc1P(=O)(O)O |  | > 100 µM |  | > 100 µM |  | > 100 µM |  | > 100 µM |  | > 100 µM |  | > 100 µM |  | > 100 µM |  |  |  | > 100 µM |  | > 100 µM |
| CC(C)(Sc1cc(C(C)(C)C)c(O)c(C(C)(C)C)c1)Sc1cc(C(C)(C)C)c(O)c(C(C)(C)C)c1 |  | > 100 µM |  | > 100 µM |  | > 100 µM |  | > 100 µM |  | > 100 µM |  | > 100 µM |  | > 100 µM |  | > 100 µM |  | > 100 µM |  | > 100 µM |
| C=C(C)[C@@H]1CC[C@]2(C(=O)OC)CC[C@]3(C)[C@H](CC[C@@H]4[C@@](C)(CCc5nn[nH]n5)[C@H](C(=C)C)CC[C@]43C)[C@@H]12 | 10.2 µM | 35 µM | 16.4 µM | 39.4 µM | 23.9 µM | 79.9 µM | 19.3 µM | 46 µM | 15.7 µM | 30.1 µM | 15.2 µM | 84.3 µM | 26.9 µM | > 100 µM | 25.6 µM | 82.8 µM | 15 µM | 48.1 µM | 20.8 µM | 73.2 µM |
| CCCN1CCC(Oc2cc(Nc3nc(Nc4cccc(F)c4C(N)=O)c4cc[nH]c4n3)c(OC)cc2Cl)CC1 | 3.58 µM | 7.64 µM | 3.49 µM | 8.26 µM | 3.28 µM | 6.75 µM | 0.785 µM | 3.57 µM | 2.28 µM | 6.03 µM | 1.32 µM | 3.12 µM | 2.16 µM | 5.5 µM | 4.87 µM | 14 µM | 4.01 µM | 7.99 µM | 3.73 µM | 8.57 µM |
| CCOc1ccc2nc3cc(N)ccc3c(N)c2c1 | 36.1 µM and 22.8 µM | > 100 µM and 76.3 µM | 2.2 µM and 2.31 µM | 13.2 µM and 11.3 µM | 11 µM and 5.67 µM | 28.6 µM and 21 µM | 3.1 µM and 3.08 µM | 16.2 µM and 14.4 µM | 4.97 µM and 2.38 µM | 20.3 µM and 14.6 µM | 0.336 µM and 0.385 µM | 1.57 µM and 2.4 µM | 3.62 µM and 3.63 µM | 15.4 µM and 14.2 µM | 2.67 µM and 3.65 µM | 14.2 µM and 15.6 µM | 7.01 µM and 3.93 µM | 48.3 µM and 16.6 µM | 9.69 µM and 24.6 µM | > 100 µM |
| COc1cc2c(cc1OCCCCCOc1ccc(-c3nc4ccccc4s3)cc1)N=C[C@@H]1CCCN1C2=O | 2.36 µM | > 62 µM | 2.6 µM | 10.5 µM | 6.61 µM | 21.2 µM | 3.01 µM | > 28.6 µM | 1.46 µM | 5.43 µM | 0.799 µM | 4.11 µM | 1.23 µM | 12.4 µM | 8.97 µM | > 25.6 µM | 2.73 µM | 27.6 µM | 2.55 µM | 15.6 µM |
| COCCn1c(Nc2ccc(C(=O)NO)cc2)nc2ccccc21 | 1.37 µM | 6.24 µM | 4.43 µM | 16.3 µM | 1.77 µM | 14.1 µM | 2.34 µM | 7.14 µM | 0.846 µM | 3.91 µM | 3.03 µM | > 100 µM | 2.11 µM | 6.54 µM | 3.45 µM | 20.2 µM | 2.85 µM | 12.9 µM | 1.3 µM | 4.84 µM |
| COC1C(OC(=O)/C=C/C=C/C=C/C=C/C(=O)O)CCC2(CO2)C1C1(C)OC1CC=C(C)C (stereo unspecified) | 0.414 µM | > 100 µM | 0.193 µM | > 83.7 µM | 0.489 µM | > 84.2 µM | 0.272 µM | > 100 µM | 0.265 µM |  | 0.326 µM | 70.2 µM | 0.12 µM | > 100 µM |  | > 84.5 µM | 0.373 µM | 49 µM |  | 97.7 µM |
